Data as given in ChEMBL document CHEMBL5346896, “Development of indolealkylamine derivatives as potential multi-target agents for COVID-19 treatment” (Eur J Med Chem, 2023).

System: SARS-CoV-2
Assay: Antiviral activity against SARS-CoV-2 spike pseudotyped lentivirus infected in HEK293 cells expressing human ACE2 assessed as inhibition of viral entry into cells at highest concentration preincubated with cell for 1 hrs followed by viral infection for 1 hrs and further replaced with fresh medium and measured 48 hrs post transduction by luminescence based luciferase reporter assay relative to …
Format: functional, Severe acute respiratory syndrome coronavirus 2, HEK293T
Settings: time 2 hrs

SMILES: COc1ccc2[nH]c(C(O)c3ccc(Cl)cc3)c(CCNC(C)=O)c2c1 (configuration not stated)
- inhibition (INH): 70%

SMILES: COC(=O)NCCc1c(C(O)c2ccccc2)[nH]c2ccc(OC)cc12 (configuration not stated)
- inhibition (INH): 70%
